Experimental data as given in patent publication US20260265538A1, “Aqueous Industrial Product Stabilized Against Microbial Contamination” (Thor GmbH, priority 2023, published 2026).

Test system: Bacteria mixture 2 (alkaliphilic bacteria of the Nesterenkonia & Alkalibacterium genus)
Experiment: Repetitive stress test of paints with bacteria mixture 2, semiquantitative evaluation (examples 4 and 5)
Assay type: cell-based
Set-up: key to Bacterial growth after inoculation: 0: No growth; Minimal growth, 1 to 10 colonies visible over the entire streak; 2: Light growth, maximum 100 colonies; Moderate growth, maximum 300 to 400 colonies; Uniform growth, >400 colonies, single colonies still clearly recognizable; 5: Heavy growth, too many colonies to count, but no growth over the entire streak; 6: Full growth, barely any single colonies still apparent, growth over the entire streak
Settings: Table 4
Excerpt: Paints 1 to 3 were mixed and homogenized with various concentrations of the guanidinium salts to be tested.
The batches obtained of the paint thus prepared were inoculated repeatedly with a mixture of different wild-type bacterial strains that are of practical relevance with regard to contamination. These bacteria had previously been isolated from commercial emulsion paints containing conventional preservatives (bacteria mixture 1, Pseudomonas genus), which are microbially contaminated in practice, and commercial so-called preservative-free alkaline emulsion paints (bacteria mixture 2, alkaliphilic bacteria of the Nesterenkonia & Alkalibacterium genus), which are microbially contaminated in practice.
• Nesterenkonia sp. DSM 108520 • Nesterenkonia sp. DSM 108521 • Alkalibacterium pelagium DSM 108522 • Nesterenkonia massiliensis DSM 110679 • Nesterenkonia sp. DSM 108519
The inoculum was added to the respective sample in each inoculation at 2% (v/w) as a fresh cell suspension in a physiological saline solution (0.9% NaCl). The cell count of the added inoculum in example 1 was 10^5/ml, in examples 2 to 5 10^9/ml, and in example 6 10^6/ml, each in equal portions consisting of the individual bacterial strains. The cell suspension was produced by growing the individual bacteria at 30° C. for 24 h in liquid culture on a shaker. The medium used to grow the bacteria from bacteria mixture 1 was Müller-Hinton liquid medium. Bacteria from bacteria mixture 2 were grown in Müller-Hinton liquid medium that had been adjusted to pH 9.5-9.7 with an alkaline buffer solution beforehand. After growing, the individual liquid cultures were centrifuged, and the cells were resuspended in physiological saline solution. In order to adjust the mixture to the desired cell count, the individual bacteria suspensions, if necessary, were diluted accordingly before being combined with saline solution. The cell count of the inoculum was determined in each case by chamber counting.
In examples 2 to 6, what is called a repetitive stress test with bacteria was conducted by inoculating the samples at particular time intervals repeatedly with a bacteria suspension having a cell count of 10^9/ml (2% v/w) and monitoring the evolution of the bacteria by a semiquantitative evaluation method. After each inoculation, the samples were incubated at 30° C. for 6 days (bacteria mixture 1 and 3) or 7 and 14 days (bacteria mixture 2), and after these periods bacterial infestation was evaluated semiquantitatively in each case. For this purpose, an aliquot was taken from each sample after homogenization using a sterile plastic inoculation loop (10 μl) and streaked evenly on agar plates (bacteria mixture 1 and 3 on tryptic soy agar, bacteria mixture 2 on DSMZ 31 alkaline nutrient agar). The streaked agar plates were then incubated at 30° C. for 48 h (bacteria mixture 1 and 3) or 5 to 7 days (bacteria mixture 2). After incubation, the bacterial colonies grown on the agar plates were visually evaluated and quantified according to the following scheme:
A total of 3 inoculation cycles was performed in each repetitive stress test.
Inoculation 2% (w/v) with Bacteria Mixture 2, 10^9 CFU/ml

N=C(N)N.N=C(N)N.O=C(O)O [guanidine carbonate]
Bacterial growth after inoculation (Paint 1, +0.1% guanidine carbonate (656 ppm guanidine), pH 9.1, 1. inoculation, 7 d): 0/0
Bacterial growth after inoculation (Paint 1, +0.1% guanidine carbonate (656 ppm guanidine), pH 9.1, 1. inoculation, 14 d): 0/0
Bacterial growth after inoculation (Paint 1, +0.1% guanidine carbonate (656 ppm guanidine), pH 9.1, 2. inoculation, 7 d): 0/0
Bacterial growth after inoculation (Paint 1, +0.1% guanidine carbonate (656 ppm guanidine), pH 9.1, 2. inoculation, 14 d): 0/0
Bacterial growth after inoculation (Paint 1, +0.1% guanidine carbonate (656 ppm guanidine), pH 9.1, 3. inoculation, 7 d): 6/6
Bacterial growth after inoculation (Paint 1, +0.1% guanidine carbonate (656 ppm guanidine), pH 9.1, 3. inoculation, 14 d): 6/6
Bacterial growth after inoculation (Paint 1, +0.15% guanidine carbonate (984 ppm guanidine), pH 9.4, 1. inoculation, 7 d): 0/0
Bacterial growth after inoculation (Paint 1, +0.15% guanidine carbonate (984 ppm guanidine), pH 9.4, 1. inoculation, 14 d): 0/0
Bacterial growth after inoculation (Paint 1, +0.15% guanidine carbonate (984 ppm guanidine), pH 9.4, 2. inoculation, 7 d): 0/0
Bacterial growth after inoculation (Paint 1, +0.15% guanidine carbonate (984 ppm guanidine), pH 9.4, 2. inoculation, 14 d): 0/0
Bacterial growth after inoculation (Paint 1, +0.15% guanidine carbonate (984 ppm guanidine), pH 9.4, 3. inoculation, 7 d): 0/0
Bacterial growth after inoculation (Paint 1, +0.15% guanidine carbonate (984 ppm guanidine), pH 9.4, 3. inoculation, 14 d): 0/0
Bacterial growth after inoculation (Paint 1, +0.2% guanidine carbonate (1312 ppm guanidine), pH 9.6, 1. inoculation, 7 d): 0/0
Bacterial growth after inoculation (Paint 1, +0.2% guanidine carbonate (1312 ppm guanidine), pH 9.6, 1. inoculation, 14 d): 0/0
Bacterial growth after inoculation (Paint 1, +0.2% guanidine carbonate (1312 ppm guanidine), pH 9.6, 2. inoculation, 7 d): 0/0
Bacterial growth after inoculation (Paint 1, +0.2% guanidine carbonate (1312 ppm guanidine), pH 9.6, 2. inoculation, 14 d): 0/0
Bacterial growth after inoculation (Paint 1, +0.2% guanidine carbonate (1312 ppm guanidine), pH 9.6, 3. inoculation, 7 d): 0/0
Bacterial growth after inoculation (Paint 1, +0.2% guanidine carbonate (1312 ppm guanidine), pH 9.6, 3. inoculation, 14 d): 0/0
Bacterial growth after inoculation (Paint 1, +0.25% guanidine carbonate (1640 ppm guanidine), pH 9.7, 1. inoculation, 7 d): 0/0
Bacterial growth after inoculation (Paint 1, +0.25% guanidine carbonate (1640 ppm guanidine), pH 9.7, 1. inoculation, 14 d): 0/0
Bacterial growth after inoculation (Paint 1, +0.25% guanidine carbonate (1640 ppm guanidine), pH 9.7, 2. inoculation, 7 d): 0/0
Bacterial growth after inoculation (Paint 1, +0.25% guanidine carbonate (1640 ppm guanidine), pH 9.7, 2. inoculation, 14 d): 0/0
Bacterial growth after inoculation (Paint 1, +0.25% guanidine carbonate (1640 ppm guanidine), pH 9.7, 3. inoculation, 7 d): 0/0
Bacterial growth after inoculation (Paint 1, +0.25% guanidine carbonate (1640 ppm guanidine), pH 9.7, 3. inoculation, 14 d): 0/0
Bacterial growth after inoculation (Paint 1, +0.3% guanidine carbonate (1968 ppm guanidine), pH 9.7, 1. inoculation, 7 d): 0/0
Bacterial growth after inoculation (Paint 1, +0.3% guanidine carbonate (1968 ppm guanidine), pH 9.7, 1. inoculation, 14 d): 0/0
Bacterial growth after inoculation (Paint 1, +0.3% guanidine carbonate (1968 ppm guanidine), pH 9.7, 2. inoculation, 7 d): 0/0
Bacterial growth after inoculation (Paint 1, +0.3% guanidine carbonate (1968 ppm guanidine), pH 9.7, 2. inoculation, 14 d): 0/0
Bacterial growth after inoculation (Paint 1, +0.3% guanidine carbonate (1968 ppm guanidine), pH 9.7, 3. inoculation, 7 d): 0/0
Bacterial growth after inoculation (Paint 1, +0.3% guanidine carbonate (1968 ppm guanidine), pH 9.7, 3. inoculation, 14 d): 0/0
Bacterial growth after inoculation (Paint 1, +0.4% guanidine carbonate (2624 ppm guanidine), pH 9.9, 1. inoculation, 7 d): 0/0
Bacterial growth after inoculation (Paint 1, +0.4% guanidine carbonate (2624 ppm guanidine), pH 9.9, 1. inoculation, 14 d): 0/0
Bacterial growth after inoculation (Paint 1, +0.4% guanidine carbonate (2624 ppm guanidine), pH 9.9, 2. inoculation, 7 d): 0/0
Bacterial growth after inoculation (Paint 1, +0.4% guanidine carbonate (2624 ppm guanidine), pH 9.9, 2. inoculation, 14 d): 0/0
Bacterial growth after inoculation (Paint 1, +0.4% guanidine carbonate (2624 ppm guanidine), pH 9.9, 3. inoculation, 7 d): 0/0
Bacterial growth after inoculation (Paint 1, +0.4% guanidine carbonate (2624 ppm guanidine), pH 9.9, 3. inoculation, 14 d): 0/0
Bacterial growth after inoculation (Paint 1, +0.5% guanidine carbonate (3280 ppm guanidine), pH 10.1, 1. inoculation, 7 d): 0/0
Bacterial growth after inoculation (Paint 1, +0.5% guanidine carbonate (3280 ppm guanidine), pH 10.1, 1. inoculation, 14 d): 0/0
Bacterial growth after inoculation (Paint 1, +0.5% guanidine carbonate (3280 ppm guanidine), pH 10.1, 2. inoculation, 7 d): 0/0
Bacterial growth after inoculation (Paint 1, +0.5% guanidine carbonate (3280 ppm guanidine), pH 10.1, 2. inoculation, 14 d): 0/0
Bacterial growth after inoculation (Paint 1, +0.5% guanidine carbonate (3280 ppm guanidine), pH 10.1, 3. inoculation, 7 d): 0/0
Bacterial growth after inoculation (Paint 1, +0.5% guanidine carbonate (3280 ppm guanidine), pH 10.1, 3. inoculation, 14 d): 0/0
Bacterial growth after inoculation (Paint 1, +1.0% guanidine carbonate (6560 ppm guanidine), pH 10.4, 1. inoculation, 7 d): 0/0
Bacterial growth after inoculation (Paint 1, +1.0% guanidine carbonate (6560 ppm guanidine), pH 10.4, 1. inoculation, 14 d): 0/0
Bacterial growth after inoculation (Paint 1, +1.0% guanidine carbonate (6560 ppm guanidine), pH 10.4, 2. inoculation, 7 d): 0/0
Bacterial growth after inoculation (Paint 1, +1.0% guanidine carbonate (6560 ppm guanidine), pH 10.4, 2. inoculation, 14 d): 0/0
Bacterial growth after inoculation (Paint 1, +1.0% guanidine carbonate (6560 ppm guanidine), pH 10.4, 3. inoculation, 7 d): 0/0
Bacterial growth after inoculation (Paint 1, +1.0% guanidine carbonate (6560 ppm guanidine), pH 10.4, 3. inoculation, 14 d): 0/0
Bacterial growth after inoculation (Paint 2, +0.1% guanidine carbonate (656 ppm guanidine), pH 8.9, 1. inoculation, 7 d): 2 (Light growth, maximum 100 colonies)
Bacterial growth after inoculation (Paint 2, +0.1% guanidine carbonate (656 ppm guanidine), pH 8.9, 1. inoculation, 14 d): 0
Bacterial growth after inoculation (Paint 2, +0.1% guanidine carbonate (656 ppm guanidine), pH 8.9, 2. inoculation, 7 d): 6
